What was measured:
P2X4 [1] = target: T1, P2X4 (Homo sapiens, UniProt Q99571); assay: Assay A: human P2X4 receptor cell line, FLIPR calcium assay (Fluo-8, agonist Bz-ATP at EC80); format: cell-based; set-up: host or cells: HEK 293 (recombinant, constitutively expressing; with mitochondrial photina in Assay B); settings: HEK human P2X4 cells, Fluo-8 FLIPR; for IC50: Bz-ATP at EC80, average values; for Emax: percentage of maximal inhibition, read-out: human P2X4 Assay A avg Efficacy
T1 sequence (Q99571 1-388): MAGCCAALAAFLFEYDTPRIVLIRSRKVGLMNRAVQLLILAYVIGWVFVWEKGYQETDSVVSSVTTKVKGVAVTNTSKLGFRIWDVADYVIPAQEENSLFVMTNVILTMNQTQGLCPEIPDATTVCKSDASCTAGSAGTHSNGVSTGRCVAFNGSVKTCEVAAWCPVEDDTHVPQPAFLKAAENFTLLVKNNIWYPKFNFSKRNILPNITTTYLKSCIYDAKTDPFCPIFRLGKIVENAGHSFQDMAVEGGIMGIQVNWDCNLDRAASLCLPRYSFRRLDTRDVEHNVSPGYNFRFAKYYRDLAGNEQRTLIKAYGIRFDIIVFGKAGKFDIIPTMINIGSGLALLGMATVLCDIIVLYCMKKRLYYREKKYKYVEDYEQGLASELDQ
Protocol: A fluorescent imaging plate reader (FLEX/FLIPR station; Molecular Devices) was used to monitor intracellular calcium levels using the calcium-chelating dye Fluo-8 (Molecular Probes). […] Cells expressing purinergic receptors human P2X4 (HEK human P2X4: PerkinElmer, Product No.: AX-015-PCF) were plated at a density of 20,000 cells/well in poly-D-lysine-coated 384-well plates approximately 20 hours before beginning the assay. On the day of the assay, the medium was removed and 30 μl of dye buffer (Hank's balanced salt solution, 10 mM HEPES, 1.8 mM CaCl2), 1 mM MgCl2, 2 mM probenecid, 5 mM D-glucose monohydrate, 5 μM Fluo-8, pH=7.4) was added for 30 min at […] and 5% CO2. The antagonist in probenecid buffer (Hank's balanced salt solution, 10 mM HEPES, 1.8 mM CaCl2, 1 mM MgCl2, 2 mM probenecid, 5 mM D-glucose monohydrate, pH=7.4) was added in a volume of 10 μl and allowed to incubate for 30 min at room temperature. The final assay DMSO concentration is 0.5%. The agonist, Bz-ATP, is added in a volume of 10 μl at a concentration representing the EC80 value. The fluorescence was measured for an interval of 120 sec at 2 sec intervals and analyzed based on the increase in peak relative fluorescence units (RFU) compared to the basal fluorescence. Peak fluorescence was used to determine the response to agonist obtained at each concentration of antagonist by the following equation:
% Response=100*(RFU(drug)−RFU(control))/(RFU(DMSO)−RFU(control))
The compounds were tested in triplicates per plate and mean values were plotted in Excel XLFit to determine IC50 values, percentage of maximal inhibition and the Hill coefficients.

P2X4 [2] = target: T1, P2X4; assay: Assay B: human P2X4 receptor cell line, mitochondrial photina luminescence (agonist Bz-ATP at EC50); format: cell-based; set-up: host or cells: HEK 293 (recombinant, constitutively expressing; with mitochondrial photina in Assay B); settings: HEK human P2X4 cell line, photina luminescence, agonist Bz-ATP at EC50, average; for Emax: read-out: human P2X4 Assay B avg Efficacy
Method in brief: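 Bz-ATP at its EC50 activates human P2X4 stably expressed in a cell line that also carries the calcium-sensitive photoprotein mitochondrial photina (coelenterazine cofactor). Light emitted on calcium influx is measured straight away in a luminometer. Reduced luminescence indicates antagonism.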

SMILES | IC50 (P2X4 [1]) [nM] | Emax (P2X4 [1]) [%] | IC50 (P2X4 [2]) [nM] | Emax (P2X4 [2]) [%]
CC1(COc2ccc(NC(=O)Cc3ccccc3Cl)cc2S(N)(=O)=O)CCOCC1 [Example 053, 2-(2-Chlorophenyl)-N-{4-[(4-methyltetrahydro-2H-pyran-4-yl)methoxy]-3-sulfamoylphenyl}acetamide] | 197 | 90 | 859 | 84
NS(=O)(=O)c1cc(NC(=O)Cc2ccccc2Cl)ccc1OCC1(F)CCOCC1 [Example 054, 2-(2-chlorophenyl)-N-{4-[(4-fluorotetrahydro-2H-pyran-4-yl)methoxy]-3-sulfamoylphenyl}acetamide] | 68 | 94 | 578 | 84
NS(=O)(=O)c1cc(NC(=O)Cc2ccccc2)ccc1Oc1ccc(Cl)cc1 [Example 077, N-[4-(4-Chlorophenoxy)-3-sulfamoylphenyl]-2-phenylacetamide] | 8340 | 54 | 201 | 53
NS(=O)(=O)c1cc(NC(=O)Cc2ccccc2Cl)ccc1Oc1cnc(Cl)nc1 [Example 079] |  | 54 |  | 40
NS(=O)(=O)c1cc(NC(=O)Cc2ccccc2Cl)c(Cl)cc1Oc1cccc(Cl)c1 [Example 082, N-[2-chloro-4-(3-chlorophenoxy)-5-sulfamoylphenyl]-2-(2-chlorophenyl)acetamide] | > 25000 | 31 | > 50000 | 33
NS(=O)(=O)c1cc(NC(=O)Cc2cccc(F)c2Cl)c(Cl)cc1Oc1cccc(Cl)c1 [Example 083, N-[2-chloro-4-(3-chlorophenoxy)-5-sulfamoylphenyl]-2-(2-chloro-3-fluorophenyl)acetamide] | > 25000 | 39 |  | 35
NS(=O)(=O)c1cc(NC(=O)Cc2ccc(F)cc2)ccc1Oc1cccc(Cl)c1 [Example 085, N-[4-(3-Chlorophenoxy)-3-sulfamoylphenyl]-2-(4-fluorophenyl)acetamide] |  | 86 |  | 59
Cc1ccc(CC(=O)Nc2ccc(Oc3cccc(Cl)c3)c(S(N)(=O)=O)c2)c(Cl)c1 [Example 095, 2-(2-Chloro-4-methylphenyl)-N-[4-(3-chlorophenoxy)-3-sulfamoylphenyl]acetamide] | 137 | 64 | 99 | 63
Cc1cccc(Cl)c1CC(=O)Nc1ccc(Oc2cccc(Cl)c2)c(S(N)(=O)=O)c1 [Example 096, 2-(2-Chloro-6-methylphenyl)-N-[4-(3-chlorophenoxy)-3-sulfamoylphenyl]acetamide] | 78 | 72 | 27 | 59
Cc1ccc(Cl)c(CC(=O)Nc2ccc(Oc3cccc(Cl)c3)c(S(N)(=O)=O)c2)c1 [Example 097, 2-(2-Chloro-5-methylphenyl)-N-[4-(3-chlorophenoxy)-3-sulfamoylphenyl]acetamide] | 119 | 84 | 123 | 78
COc1cccc(Cl)c1CC(=O)Nc1ccc(Oc2cccc(Cl)c2)c(S(N)(=O)=O)c1 [Example 101, 2-(2-Chloro-6-methoxyphenyl)-N-[4-(3-chlorophenoxy)-3-sulfamoylphenyl]acetamide] | 38 | 97 | 59 | 69
COc1ccc(Cl)c(CC(=O)Nc2ccc(Oc3cccc(Cl)c3)c(S(N)(=O)=O)c2)c1 [Example 102, 2-(2-Chloro-5-methoxyphenyl)-N-[4-(3-chlorophenoxy)-3-sulfamoylphenyl]acetamide] | 68 | 85 | 84 | 61

Next, values leading:

IC50 (P2X4 [1]) [nM] | Emax (P2X4 [1]) [%] | IC50 (P2X4 [2]) [nM] | Emax (P2X4 [2]) [%] | SMILES
20 | 87 | 124 | 83 | NS(=O)(=O)c1cc(NC(=O)Cc2ccccc2Cl)ccc1Oc1cccc(N2CCOC2=O)c1 [Example 051, 2-(2-Chlorophenyl)-N-{4-[3-(2-oxo-1,3-oxazolidin-3-yl)phenoxy]-3-sulfamoylphenyl}acetamide]
 | 85 |  | 66 | NS(=O)(=O)c1cc(NC(=O)Cc2ccccc2Cl)ccc1Oc1cccc(C(=O)N2CCOCC2)c1 [Example 052, 2-(2-Chlorophenyl)-N-{4-[3-(morpholin-4-ylcarbonyl)phenoxy]-3-sulfamoylphenyl}acetamide]
45 | 85 | 75 | 70 | NS(=O)(=O)c1cc(NC(=O)Cc2ccccc2Cl)ccc1Oc1cccc(Br)c1 [Example 059, N-[4-(3-Bromophenoxy)-3-sulfamoylphenyl]-2-(2-chlorophenyl)acetamide]
53 | 88 | 147 | 72 | Cc1nc(-c2cccc(Oc3ccc(NC(=O)Cc4ccccc4Cl)cc3S(N)(=O)=O)c2)cs1 [Example 061, 2-(2-Chlorophenyl)-N-{4-[3-(2-methyl-1,3-thiazol-4-yl)phenoxy]-3-sulfamoylphenyl}acetamide]
560 | 95 | 455 | 70 | NS(=O)(=O)c1cc(NC(=O)Cc2ccccc2Cl)ccc1Oc1ccc(C2CCC(=O)N2)cc1 (stereo not shown) [Example 062, 2-(2-Chlorophenyl)-N-{4-[4-(5-oxopyrrolidin-2-yl)phenoxy]-3-sulfamoylphenyl}acetamide]
90 | 82 | 221 | 70 | NS(=O)(=O)c1cc(NC(=O)Cc2ccccc2Cl)ccc1Oc1ccc(N2CCOC2=O)cc1 [Example 063, 2-(2-chlorophenyl)-N-{4-[4-(2-oxo-1,3-oxazolidin-3-yl)phenoxy]-3-sulfamoylphenyl}acetamide]
 | 81 |  | 70 | NS(=O)(=O)c1cc(NC(=O)Cc2ccccc2Cl)ccc1Oc1ccccc1Cl [Example 065, N-[4-(2-Chlorophenoxy)-3-sulfamoylphenyl]-2-(2-chlorophenyl)acetamide]
> 25000 | 51 | 129 | 46 | NS(=O)(=O)c1cc(NC(=O)Cc2ccccc2Cl)ccc1Oc1ccc(Cl)cc1 [Example 066, N-[4-(4-Chlorophenoxy)-3-sulfamoylphenyl]-2-(2-chlorophenyl)acetamide]
44 | 65 | 140 | 51 | NS(=O)(=O)c1cc(NC(=O)Cc2ccccc2Cl)ccc1Oc1cncc(F)c1 [Example 080, 2-(2-Chlorophenyl)-N-{4-[(5-fluoropyridin-3-yl)oxy]-3-sulfamoylphenyl}acetamide]
65 | 43 | > 16000 | 36 | NS(=O)(=O)c1cc(NC(=O)Cc2ccccc2Cl)ccc1Oc1ccc(Cl)nc1 [Example 081, 2-(2-Chlorophenyl)-N-{4-[(6-chloropyridin-3-yl)oxy]-3-sulfamoylphenyl}acetamide]
102 | 85 | 145 | 66 | NS(=O)(=O)c1cc(NC(=O)Cc2ccccc2C(F)F)ccc1Oc1cccc(Cl)c1 [Example 089, N-[4-(3-Chlorophenoxy)-3-sulfamoylphenyl]-2-[2-(difluoromethyl)phenyl]acetamide]
27 | 75 | 53 | 58 | NS(=O)(=O)c1cc(NC(=O)Cc2ccccc2Br)ccc1Oc1cccc(Cl)c1 [Example 091, 2-(2-Bromophenyl)-N-[4-(3-chlorophenoxy)-3-sulfamoylphenyl]acetamide]
208 | 78 | 141 | 70 | NS(=O)(=O)c1cc(NC(=O)Cc2cccc(Cl)c2Cl)ccc1Oc1cccc(Cl)c1 [Example 103, N-[4-(3-Chlorophenoxy)-3-sulfamoylphenyl]-2-(2,3-dichlorophenyl)acetamide]

From US20180338980A1, “AROMATIC SULFONAMIDE DERIVATIVES” (BAYER PHARMA AKTIENGESELLSCHAFT, priority 2015, published 2018)
